Consider 13 molecules from patent US9334280B2, “Synthetic rigidin analogues as anticancer agents, salts, solvates and prodrugs thereof, and method of producing same” (New Mexico Technical Research Foundation, priority 2012, dated 2016).

One may read the GI50 as the concentration that inhibits growth by half.

One assay deals with HeLa cells. As to the kind of experiment: Flow cytometric cell cycle analysis (Vybrant Orange). Conditions: 0.1 μM, 24 h. In kind it is cell-based, human. The method, then: To assess the effects of the analogues on the cell cycle, cell cycle analysis was performed. 70-80% confluent HeLa cells were trypsinized and seeded at an initial density of 2×10^5 cell per well into 6 well plates in DMEM supplemented with 10% FBS, 100 mg/L penicillin G and 100 mg/L streptomycin. The cells were allowed to adhere overnight and before treatment with compounds of Formula I at concentrations ranging from 0.1 to 10 microM. After 24 hrs, the cells were washed 3× with DMEM, trypsinized, pelleted, and re-suspended in 200 microL of culture medium containing 10 microM (2 microL/mL) vybrant orange dye. The samples in the labeling solution were transferred into Falcon tubes and incubated in a water bath for 30 mins at 37° C. The samples were then analyzed using a Becton Dickinson FACscan flow cytometer with CellQuest software. A 488 nm laser was utilized using parameters that can be found in Appendix B; 10,000 events were collected for analysis. Cells treated with 0.1% DMSO were used as a negative control and cells treated with colchicine were used as a positive control.
In further anticancer evaluation of compounds of Formula I cell cycle analysis was performed using the cell permeable DNA binding dye Vybrant Orange. In a normal population, cells are distributed among the three major phases of the cell cycle, G0/G1 in which there is one set of paired chromosomes per cell (2n), followed by the S or synthesis phase in which DNA is synthesized in preparation for division (there is a variable amount of DNA present during this phase) and finally G2/M phase in which the chromosomes of each cell have now been duplicated (4n). This DNA content can be measured using fluorescent DNA selective probes such as Vybrant Orange that produce signals that are proportional to DNA mass per cell. This dye interacts with double stranded DNA (dsDNA) in living cells and becomes fluorescent upon binding and thus can be used to track DNA content as cells progress through the various phases of the cell cycle using flow cytometry. Cell cycle analysis was performed on HeLa cells using Rig8 at various concentrations above and below the respective GI50. Since colchicine is a known antimitotic drug, it was utilized as a positive control, while HeLa cells treated with 0.1% DMSO were used as a negative control. FIG. 6 illustrates the results of this analysis using Rig 8 on HeLa cells.
In general terms: Flow cytometry measures light scatter and fluorescence of single cells or particles in a stream.

Assay [1] deals with HeLa cervical adenocarcinoma cells. Kind of assay: MTT antiproliferative assay, HeLa. In kind it is cell-based. Conditions: Homo sapiens, MTT, ± SD. The method, then: (§1) Human T-cell leukemia cell line Jurkat (ATCC TIB-152, E6-1 clone) was cultured in RPMI-1640 (Invitrogen) supplemented with 10% FBS (Invitrogen), 100 mg/L penicillin G, 100 mg/L streptomycin, 1.0 mM sodium pyruvate, 1.5 g/L sodium bicarbonate, and 4.5 g/L glucose (all from Sigma). Human cervical cancer cell line HeLa (ATCC S3) was cultured in DMEM (Invitrogen) supplemented with 10% FBS, 100 mg/L penicillin G, and 100 mg/L streptomycin. MCF-7 (human mammary carcinoma) cells were cultured in DMEM supplemented with 1.0 mM sodium pyruvate, 1% GlutaMax™-1 (Invitrogen), 100 μg/mL penicillin, 100 μg/mL streptomycin, and 10% FBS. Human uterine sarcoma MES-SA and MES-SA/Dx5 cells were cultured in RPMI-1640 medium supplemented with 10% FBS, 100 mg/L penicillin G and 100 mg/L streptomycin. All cells were incubated at 37° C. in a humidified atmosphere with 5% CO2. The other cell lines were maintained in a similar fashion as previously described.
(§2) To evaluate antiproliferative properties of the compounds of Formula I, mitochondrial dehydrogenase activities were measured using the MTT assay. The cell lines were prepared by trypsinizing and seeding […] cells per well into microplates. All compounds were reconstituted in dimethyl sulfoxide (DMSO) at a concentration of either 100 mM or 25 mM prior to treatment. The cells were grown for 24 hrs before treatment at concentrations ranging from 0.004 to 100 microM and incubated for 48 hrs in 200 microL media. 20 microL of MTT reagent in serum free medium (5 mg/mL) was added to each well and incubated further for 2 hrs. Media was removed and the resulting formazan crystals were re-solubilized in 100 microL of DMSO and the optical density (OD) was measured using a Thermomax Molecular Device plate reader at a wavelength of 490 nm. The experiments were performed in quadruplicate and repeated at least twice for each compound per cell line. Cells treated with 0.1% DMSO were used as a negative control, while phenyl arsine oxide (PAO) was used as a positive killing control.
(§3) Human cancer cell lines were obtained from the American Type Culture Collection (ATCC, Manassas, Va., USA), the European Collection of Cell Culture (ECACC, Salisbury, UK) and the Deutsche Sammlung von Mikroorganismen and Zellkulturen (DSMZ, Braunschweig, Germany). Human cervical adenocarcinoma HeLa cells were cultured in DMEM supplemented with 10% fetal bovine serum (FBS). Human mammary carcinoma MCF-7 cells were cultured in RPMI supplemented with 10% FBS. The U87 and U373 cells were cultured in DMEM culture medium (Lonza code 12-136F, Vervier, Belgium), while the SKMEL-28 and A549 cells were cultured in RPMI culture medium (Lonza; code 12-115F) supplemented with 10% heat-inactivated FBS (Lonza, FBS South America code DE14-801F). […] All cell lines were cultured in T25 flasks, maintained and grown at 37° C., 95% humidity, 5% CO2.
(§4) To evaluate antiproliferative properties of the synthesized compounds, the MTT assay was used. The cell lines were assessed by trypsinizing each cell line and seeding 4×10^3 cells per well into 96-well plates. All compounds were dissolved in DMSO at a concentration of either 100 mM or 50 mM prior to cell treatment. The cells were grown for 24 h and then treated with compounds at concentrations ranging from 0.04 to 100 μM and incubated for 48 h in 200 μL media. 20 μL of MTT reagent in serum free medium (5 mg/mL) was added to each well and incubated further for 2 h. Media was removed, and the resulting formazan crystals were re-solubilized in 200 μL of DMSO. A490 was measured using a Thermomax Molecular Device plate reader. The experiments were performed in quadruplicate and repeated at least twice for each compound per cell line. Cells treated with 0.1% DMSO were used as a control, and 1 μM phenyl arsine oxide (PAO) was used as a positive killing control.
For orientation: Formazan colour is commonly taken as a measure of viable cells.

Assay [2] concerns MCF-7 mammary gland adenocarcinoma cells. As to the kind of experiment: MTT antiproliferative assay, MCF-7. Conditions: Homo sapiens, MCF7, 48 h, MTT, ± SD. The class given is cell-based. The method, then:
as §1, §2, §3, §4

Another assay has as its system HeLa and MCF-7 cells. As to the kind of experiment: MTT antiproliferative activity, statements for HeLa and MCF-7. The class given is cell-based, human. Conditions: HeLa and MCF-7, 48 h. Here is the method:
as §2
The obtained compounds were evaluated for antiproliferative activities using the HeLa cell line as a model for human cervical adenocarcinoma and MCF-7 cells as a model for breast adenocarcinoma. The cells were treated with each compound for 48 h, and cell viability was assessed using the MTT method (Table 5).
as §4

Assay [3] relates to A549 non-small-cell lung cancer cells. Kind of assay: MTT antiproliferative assay, A549. The class given is cell-based. Conditions: Homo sapiens, Table 6, 48 h, ± SD, read-out: GI50 in vitro Values, A549. The method, then: as §2, §3, §4
The subject of a further assay is U-87 glioblastoma cells. As to the kind of experiment: MTT antiproliferative assay, U-87. In kind it is cell-based. Conditions: Homo sapiens, Table 6, 48 h, ± SD, read-out: GI50 in vitro Values, U-87. Here is the method: as §3, §4
Assay [4] deals with MES-SA/Dx5 uterine sarcoma cells (overexpress p-gp). As to the kind of experiment: MTT antiproliferative assay, MDR MES-SA/Dx5. In kind it is cell-based, human. Conditions: MES-SA/Dx5 vs MES-SA. The method, then:
as §1, §2
The cells of such tumors are referred to as multidrug resistant (MDR). Thus, we assessed the compounds of Formula I for antiproliferative activity in an MDR cancer cell line. This was done using the uterine sarcoma cells, MES-SA/Dx5, which overexpress p-gp. The parental drug-responsive MES-SA cell line was used as control.

Setting [5] is: Table 5, 48 h, read-out: cell viability GI50, HeLa.
[6] abbreviates: Table 5, read-out: cell viability GI50, MCF-7.
Setting [7] is: Table 6, 48 h, read-out: GI50 in vitro Values, HeLa.
[8] abbreviates: Table 6, read-out: GI50 in vitro Values, MCF-7.

Like-named read-outs stand apart in the source and are kept apart here.

As to `COc1cc2c(c(OC)c1OC)-c1ccc(OC)c(=O)cc1[C@@H](NC(C)=O)CC2` [Colchicine, reference compound], in the assay on HeLa cells, the “% Relative DNA Content, G0/G1” value was 28.7 ± 1.2%; the “% Relative DNA Content, G2/M” value is reported as 53.6 ± 1.3%; the “% Relative DNA Content, S” value is recorded as 15.7 ± 1.9%.

On to `O=C(c1ccccc1)c1[nH]c2[nH]c(-c3ccccn3)nc(=O)c2c1-c1ccccc1` [Compound 5], for which the concentration for 50% growth inhibition (GI50) was 2700 ± 200 nM in assay [1] (setting [5]) and 2500 ± 300 nM in assay [2] (setting [6]). Moreover, the “antiproliferative activity (potency in words)” value (“antiproliferative activity” for short) in the assay on HeLa and MCF-7 cells was “double to single digit micromolar”.

Turning to `O=C(c1ccccc1)c1[nH]c2[nH]c(-c3ccco3)nc(=O)c2c1-c1ccccc1` [Compound 6], the GI50 in assay [1] (setting [5]) was 18400 ± 1800 nM; in assay [2] (setting [6]) it was 23100 ± 500 nM. In addition, in the assay on HeLa and MCF-7 cells, the “antiproliferative activity” value is listed as “double to single digit micromolar”.

`CCOc1nc(=O)c2c(-c3ccccc3)c(C(=O)c3ccccc3)[nH]c2[nH]1` [Compound 8]: the 50% growth inhibitory concentration (GI50) is 11100 ± 400 nM in assay [1] (setting [5]) and 10400 ± 800 nM in assay [2] (setting [6]). In addition, the “antiproliferative activity” value in the assay on HeLa and MCF-7 cells was “double to single digit micromolar”.

For `CC(C)c1nc(=O)c2c(-c3ccccc3)c(C(=O)c3ccccc3)[nH]c2[nH]1` [Compound 9], the values for the concentration for 50% growth inhibition (GI50) in assay [1] (setting [5]) and in assay [2] (setting [6]) were 9100 ± 300 nM and 8300 ± 800 nM, respectively. Moreover, the “antiproliferative activity” value with HeLa and MCF-7 cells was “double to single digit micromolar”.

`Cc1nc(=O)c2c(-c3ccccc3)c(C(=O)c3ccccc3)[nH]c2[nH]1` [Compound 13, 6-Benzoyl-2-methyl-5-phenyl-1H-pyrrolo[2,3-d]pyrimidin-4(7H)-one]: the concentration for 50% growth inhibition (GI50) in assay [1] (setting [5]) is 29 ± 1 nM; in assay [1] (setting [7]), 29 ± 1 nM; in assay [2] (setting [6]), 35 ± 3 nM; in assay [2] (setting [8]), 35 ± 3 nM; in assay [3], 250 ± 10 nM; with U-87 glioblastoma cells, 77 ± 2 nM. The “antiproliferative activity” value in the assay with HeLa and MCF-7 cells was “nanomolar”.

Regarding `C#CCCCc1nc(=O)c2c(-c3ccccc3)c(C(=O)c3ccccc3)[nH]c2[nH]1` [Compound 17, 6-Benzoyl-2-(pent-4-ynyl)-5-phenyl-1H-pyrrolo[2,3-d]pyrimidin-4(7H)-one], the GI50 in assay [2] (setting [6]) stood at 45 ± 1 nM. In addition, the “antiproliferative activity” value in the assay with HeLa and MCF-7 cells is “nanomolar”.

For `Cc1nc(=O)c2c(-c3cccc(Cl)c3)c(C(=O)c3ccccc3)[nH]c2[nH]1` [Compound 18, 6-Benzoyl-5-(3-chlorophenyl)-2-methyl-1H-pyrrolo[2,3-d]pyrimidin-4(7H)-one], the GI50 turned out to be 270 ± 10 nM in assay [1] (setting [7]), 230 nM in assay [2] (setting [8]), 600 ± 230 nM in assay [3] and 900 ± 160 nM in the assay with U-87 glioblastoma cells.

Consider `Cc1nc(=O)c2c(-c3cccc(Br)c3)c(C(=O)c3ccccc3)[nH]c2[nH]1` [Compound 19, 6-Benzoyl-5-(3-bromophenyl)-2-methyl-1H-pyrrolo[2,3-d]pyrimidin-4(7H)-one], for which the 50% growth inhibitory concentration (GI50) in assay [1] (setting [7]) came to 290 ± 10 nM; in assay [2] (setting [8]), 270 ± 30 nM; in assay [3] it was 650 ± 190 nM; in the assay on U-87 glioblastoma cells it was 940 ± 120 nM.

`Cc1nc(=O)c2c(-c3cccc(F)c3)c(C(=O)c3ccccc3)[nH]c2[nH]1` [Compound 20, 6-Benzoyl-5-(3-fluorophenyl)-2-methyl-1H-pyrrolo[2,3-d]pyrimidin-4(7H)-one]: the concentration for 50% growth inhibition (GI50) came out at 290 ± 30 nM in assay [1] (setting [7]), 360 ± 20 nM in assay [2] (setting [8]), 1000 ± 900 nM in assay [3] and 1700 ± 100 nM in the assay with U-87 glioblastoma cells.

Take `Cc1nc(=O)c2c(-c3cc(Br)cc(Br)c3)c(C(=O)c3ccccc3)[nH]c2[nH]1` [Compound 23, 6-Benzoyl-5-(3,5-dibromophenyl)-2-methyl-1H-pyrrolo[2,3-d]pyrimidin-4(7H)-one]: the 50% growth inhibitory concentration (GI50) in assay [1] (setting [7]) amounted to 290 ± 10 nM; in assay [2] (setting [8]) it was 270 ± 10 nM; in assay [3], 380 ± 80 nM; in the assay on U-87 glioblastoma cells, 720 ± 60 nM.

As for `CC(=O)O[C@H]1C(=O)[C@@]2(C)[C@H]([C@H](OC(=O)c3ccccc3)[C@]3(O)C[C@H](OC(=O)[C@H](O)[C@@H](NC(=O)c4ccccc4)c4ccccc4)C(C)=C1C3(C)C)[C@]1(OC(C)=O)CO[C@@H]1C[C@@H]2O` [Taxol, reference compound], the “times less potent against the MDR cells compared with the parental MES-SA cells” value in assay [4] is “ca. 1000 times”.

Consider `CC[C@]1(O)C[C@@H]2CN(CCc3c([nH]c4ccccc34)[C@@](C(=O)OC)(c3cc4c(cc3OC)N(C)[C@H]3[C@@](O)(C(=O)OC)[C@H](OC(C)=O)[C@]5(CC)C=CCN6CC[C@]43[C@@H]65)C2)C1` [Vinblastine, reference compound], for which the “times less potent against the MDR cells compared with the parental MES-SA cells” value in assay [4] is given as “ca. 1000 times”.
